The numbers were not newly measured in US20110301189A1, “STABLE PHARMACEUTICAL COMPOSITIONS OF RAPAMYCIN ESTERS” (FRESENIUS KABI ONCOLOGY LTD., priority 2010, published 2011), which cites them from elsewhere.

The conditions of the data set: aqueous solvents.

In the case of `COC1CC2CCC(C)C(O)(O2)C(=O)C(=O)N2CCCCC2C(=O)OC(C(C)CC2CCC(OC(=O)C(C)(CO)CO)C(OC)C2)CC(=O)C(C)/C=C(\C)C(O)C(OC)C(=O)C(C)CC(C)/C=C/C=C/C=C/1C` (stereo not shown) [Rapamycin 42-ester with 3-hydroxy-2-(hydroxymethyl)-2-methylpropionic acid], the aqueous solubility result is reported as “less than 1 μg/ml”.
